Test results taken from patent US9708325B2, “Sulfonimidoylpurinone compounds and derivatives for the treatment and prophylaxis of virus infection” (Hoffmann-La Roche Inc., priority 2015, dated 2017).
Converted amounts (≈) assume the structure as drawn. Read-outs that look alike come from different tables or passages of the source.

Assays:
LYSA solubility = format: physicochemical; details: for LYSA: 0.05 M phosphate buffer (pH 6.5); for solubility thermodynamic: 0.05 M phosphate buffer, pH 6.5, aqueous buffer, thermodynamic from solid
Experimental: LYSA solubility assay is used to determine the aqueous solubility of a compound. Samples were prepared in duplicate from 10 mM DMSO stock solution. […] After one night, the solutions were filtered using a microtiter filter plate. Then the filtrate and its 1/10 dilution were analyzed by HPLC-UV.

[1] = Metabolic stability in human liver microsomes; details: 1 μM test compound, 0.5 mg/mL microsomal protein; 6.15 mL/min/kg is the limitation of assay sensitivity
Experimental: The human microsomal stability assay is used for early assessment of metabolic stability of a test compound in human liver microsomes.
Human liver microsomes (Cat. NO.: 452117, Corning, USA; Cat. NO.: H2610, Xenotech, USA) were preincubated with test compound for 10 minutes at 37° C. in 100 mM potassium phosphate buffer, pH 7.4. The reactions were initiated by adding NADPH regenerating system. The final incubation mixtures contained 1 μM test compound, 0.5 mg/mL liver microsomal protein, 1 mM MgCL2, 1 mM NADP, 1 unit/mL isocitric dehydrogenase and 6 mM isocitric acid in 100 mM potassium phosphate buffer, pH 7.4. After incubation times of 0, 3, 6, 9, 15 and 30 minutes at 37° C., 300 μL of cold ACN (including internal standard) was added to 100 μL incubation mixture to terminate the reaction. Following precipitation and centrifugation, the amount of compound remaining in the samples were determined by LC-MS/MS. Controls of no NADPH regenerating system at zero and 30 minutes were also prepared and analyzed.

human TLR7 = human TLR7 (Homo sapiens (Human), UniProt Q9NYK1); test: HEK-Blue-hTLR7 cells assay (SEAP reporter); format: cell-based; details: 20 hrs
Experimental: A stable HEK-Blue-hTLR7 cell line was purchased from InvivoGen (Cat.#: hkb-htlr7, San Diego, Calif., USA). These cells were designed for studying the stimulation of human TLR7 by monitoring the activation of NF-κB. […] Therefore the reporter expression was regulated by the NF-κB promoter upon stimulation of human TLR7 for 20 hrs. The cell culture supernatant SEAP reporter activity was determined using QUANTI-Blue™ kit (Cat.#: rep-qb1, Invivogen, San Diego, Ca, USA) at a wavelength of 640 nm, a detection medium that turns purple or blue in the presence of alkaline phosphatase.
HEK-Blue-hTLR7 cells were incubated at a density of 250,000˜450,000 cells/mL in a volume of 180 μL in a 96-well plate in Dulbecco's Modified Eagle's medium (DMEM) containing 4.5 g/L glucose, 50 U/mL penicillin, […], […], 2 mM L-glutamine, 10% (V/V) heat-inactivated fetal bovine serum for 24 hrs. Then the HEK-Blue-hTLR-7 cells were incubated with addition of 20 μL test compound in a serial dilution in the presence of final DMSO at 1% and perform incubation under 37° C. in a CO2 incubator for 20 hrs. Then 20 μL of the supernatant from each well was incubated with 180 μL Quanti-blue substrate solution at 37° C. for 2 hrs and the absorbance was read at 620˜655 nm using a spectrophotometer. The signalling pathway that TLR7 activation leads to downstream NF-κB activation has been widely accepted, and therefore similar reporter assay was also widely used for evaluating TLR7 agonist (Tsuneyasu Kaisho and Takashi Tanaka, Trends in Immunology, Volume 29, Issue 7, July 2008, […]; Hiroaki Hemmi et al, Nature Immunology 3, 196-200 (2002)).

[2] = read-out: HEK-Blue-hTLR7 (EC50 (μM))

Chain of human TLR7 (Q9NYK1 27-1049): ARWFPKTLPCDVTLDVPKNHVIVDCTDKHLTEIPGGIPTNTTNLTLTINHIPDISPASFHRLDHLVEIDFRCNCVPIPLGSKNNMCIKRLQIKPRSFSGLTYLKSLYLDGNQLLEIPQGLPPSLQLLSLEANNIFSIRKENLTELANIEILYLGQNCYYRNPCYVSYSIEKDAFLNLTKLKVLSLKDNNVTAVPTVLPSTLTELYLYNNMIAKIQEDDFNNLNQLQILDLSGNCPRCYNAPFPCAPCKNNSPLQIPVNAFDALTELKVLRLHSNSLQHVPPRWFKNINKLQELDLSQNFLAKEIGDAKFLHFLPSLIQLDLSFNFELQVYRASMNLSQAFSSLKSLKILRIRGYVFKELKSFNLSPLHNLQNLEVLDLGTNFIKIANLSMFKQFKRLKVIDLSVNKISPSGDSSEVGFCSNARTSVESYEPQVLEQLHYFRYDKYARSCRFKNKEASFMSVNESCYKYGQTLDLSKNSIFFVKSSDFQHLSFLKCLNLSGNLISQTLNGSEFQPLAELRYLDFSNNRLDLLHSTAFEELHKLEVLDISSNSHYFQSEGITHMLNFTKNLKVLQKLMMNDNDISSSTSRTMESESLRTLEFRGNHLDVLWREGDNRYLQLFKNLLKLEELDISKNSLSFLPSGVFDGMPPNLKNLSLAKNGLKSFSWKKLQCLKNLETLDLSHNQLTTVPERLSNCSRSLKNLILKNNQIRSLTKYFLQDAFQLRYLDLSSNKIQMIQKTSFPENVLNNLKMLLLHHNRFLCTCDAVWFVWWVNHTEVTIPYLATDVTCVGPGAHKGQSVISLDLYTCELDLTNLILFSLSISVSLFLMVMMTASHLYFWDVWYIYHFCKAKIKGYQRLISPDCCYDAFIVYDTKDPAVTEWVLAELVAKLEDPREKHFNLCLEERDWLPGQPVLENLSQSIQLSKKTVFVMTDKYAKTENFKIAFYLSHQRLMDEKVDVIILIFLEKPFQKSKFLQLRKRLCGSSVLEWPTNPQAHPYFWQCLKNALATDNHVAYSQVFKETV

| SMILES | Human Liver Microsome Clearance [1] | solubility thermodynamic (LYSA solubility) | EC50 (human TLR7; [2]) | LYSA (LYSA solubility) | EC50 (human TLR7; HEK-Blue-hTLR7 (EC50 (μM))) |
| --- | --- | --- | --- | --- | --- |
| CS(=N)(=O)c1nc(N)c2[nH]c(=O)n(Cc3ccccc3)c2n1 (single isomer, unassigned) [Example 1-A, 6-Amino-9-benzyl-2-(methylsulfonimidoyl)-7H-purin-8-one] | <6.15 mL/min/kg |  |  | 85 µg/mL |  |
| CCS(=N)(=O)c1nc(N)c2[nH]c(=O)n(Cc3ccc(C)cc3)c2n1 (single isomer, unassigned) [Example 71-B, 6-Amino-2-(ethylsulfonimidoyl)-9-(p-tolylmethyl)-7H-purin-8-one] | <6.15 mL/min/kg |  |  | 13 µg/mL |  |
| COCCS(=N)(=O)c1nc(N)c2[nH]c(=O)n(Cc3ccccc3)c2n1 (stereo not drawn) [Example 3, 6-Amino-9-benzyl-2-(2-methoxyethylsulfonimidoyl)-7H-purin-8-one] | <6.15 mL/min/kg | 300 µg/mL (≈ 828 µM) | 0.33 µM |  |  |
| CCCS(=N)(=O)c1nc(N)c2[nH]c(=O)n(Cc3ccc(C#N)cc3)c2n1 (stereo not drawn) [Example 32, 4-[[6-Amino-8-oxo-2-(propylsulfonimidoyl)-7H-purin-9-yl]methyl]benzonitrile] | <6.15 mL/min/kg | 18 µg/mL (≈ 48.5 µM) |  |  | 0.054 µM |
| CCCS(=N)(=O)c1nc(N)c2[nH]c(=O)n(Cc3ccc(C(N)=O)cc3)c2n1 (stereo not drawn) [Example 33, 4-[[6-amino-8-oxo-2-(propylsulfonimidoyl)-7H-purin-9-yl]methyl]benzamide] | <6.15 mL/min/kg | 79 µg/mL (≈ 203 µM) | 0.066 µM |  |  |
| CCCS(=N)(=O)c1nc(N)c2[nH]c(=O)n(Cc3ccc(C(=O)NCCOC)cc3)c2n1 (stereo not drawn) [Example 40, 4-[[6-Amino-8-oxo-2-(propylsulfonimidoyl)-7H-purin-9-yl]methyl]-N-(2-methoxyethyl)benzamide] | <6.15 mL/min/kg | 168 µg/mL (≈ 375 µM) | 0.15 µM |  |  |

Continued, in another order:

| Human Liver Microsome Clearance [1] | solubility thermodynamic (LYSA solubility) | EC50 (human TLR7; [2]) | SMILES | LYSA (LYSA solubility) | EC50 (human TLR7; HEK-Blue-hTLR7 (EC50 (μM))) |
| --- | --- | --- | --- | --- | --- |
| <6.15 mL/min/kg | 90 µg/mL (≈ 257 µM) |  | CCS(=N)(=O)c1nc(N)c2[nH]c(=O)n(Cc3ccc(F)cc3)c2n1 (single isomer, unassigned) [Example 72-A, 6-Amino-2-(ethylsulfonimidoyl)-9-[(4-fluorophenyl)methyl]-7H-purin-8-one] |  |  |
| <6.15 mL/min/kg |  |  | CCS(=N)(=O)c1nc(N)c2[nH]c(=O)n(Cc3ccc(F)cc3)c2n1 (single isomer, unassigned) [Example 72-B, 6-Amino-2-(ethylsulfonimidoyl)-9-[(4-fluorophenyl)methyl]-7H-purin-8-one] | 115 µg/mL |  |
| <6.15 mL/min/kg | 29 µg/mL (≈ 87.2 µM) | 0.2 µM | CCS(=N)(=O)c1nc(N)c2[nH]c(=O)n(Cc3ccccc3)c2n1 (stereo not drawn) [Example 2, 6-Amino-9-benzyl-2-(ethylsulfonimidoyl)-7H-purin-8-one] |  |  |
| <6.15 mL/min/kg | 40 µg/mL (≈ 111 µM) | 0.32 µM | CCCCS(=N)(=O)c1nc(N)c2[nH]c(=O)n(Cc3ccccc3)c2n1 (stereo not drawn) [Example 5, 6-Amino-9-benzyl-2-(butylsulfonimidoyl)-7H-purin-8-one] |  |  |
| <6.15 mL/min/kg |  | 0.023 µM | CCCS(=N)(=O)c1nc(N)c2[nH]c(=O)n(Cc3ccc(S(C)(=O)=O)cc3)c2n1 (stereo not drawn) [Example 37, 6-Amino-9-[(4-methylsulfonylphenyl)methyl]-2-(propylsulfonimidoyl)-7H-purin-8-one] |  |  |
| <6.15 mL/min/kg | > 465 µg/mL | 0.24 µM | CCCS(=N)(=O)c1nc(N)c2[nH]c(=O)n(Cc3cncnc3)c2n1 (stereo not drawn) [Example 43, 6-Amino-2-(propylsulfonimidoyl)-9-(pyrimidin-5-ylmethyl)-7H-purin-8-one] |  |  |
| <6.15 mL/min/kg | 152 µg/mL (≈ 434 µM) |  | CCS(=N)(=O)c1nc(N)c2[nH]c(=O)n(Cc3ccc(F)cc3)c2n1 (stereo not drawn) [Example 72, 6-Amino-2-(ethylsulfonimidoyl)-9-[(4-fluorophenyl)methyl]-7H-purin-8-one] |  |  |
